Source: patent US5849782A, “Methods of inhibiting neurodegenerative diseases” (The General Hospital Corporation, priority 1996, dated 1998)

Assays:
Male Sprague Dawley rats = experiment: Salicylate hydroxyl trapping and 3-nitrotyrosine after systemic 3-NP; assay type: in vivo, rat; conditions: 3-NP 20 mg/kg i.p. every 12 h x3; 7-NI 50 mg/kg
Experimental: Salicylate assay and 3-nitrotyrosine measurements. The salicylate hydroxyl trapping method of Floyd et al. ((1984) supra, Cao et al. (1988) Neurosci. Lett. 88:233-238, and Hall et al. (1993) J. Neurochem. 60:588-594) was used for measuring ^.cndot. OH radicals in striatal tissue following i.p. administration of 3-NP. Male Sprague Dawley rats weighing 125-150 g (n-10 per group) were injected i.p. every 12 h for 3 times with either (i) saline, (ii) 20 mg/kg of 3-NP and peanut oil vehicle, or (iii) 20 mg/kg of 3-NP and 7-NI dissolved in peanut oil. […] Salicylate and its metabolites 2,3 and 2,5 dihydroxybenzoic acid (DHBA) were quantified by HPLC with 16-electrode electrochemical detection (Beal et al. (1990) supra). Salicylate, 2,3 and 2,5 DHBA, tyrosine and 3-nitrotyrosine were measured electrochemically by oxidation at 840, 240, 120 mV, 600 mV, and 840 mV, respectively. The data were expressed as the ratio of 2,3 and 2,5 DHBA to salicylate and 3-nitrotyrosine concentrations for differing brain concentrations of salicylate and tyrosine, which could be a consequence of impairment of the blood-brain barrier (salicylate) or neuronal loss during treatment (tyrosine).

MAO-B = target: T1, MAO-B (Mus musculus, UniProt Q8BW75); experiment: MAO-B activity in forebrain mitochondrial fractions of treated mice; assay type: biochemical; conditions: four doses at 2-h intervals: deprenyl 10 mg/kg i.p. or 7-NI 50 mg/kg s.c.; vehicle 5.79±0.44
T1 construct: Crude mitochondrial preparations were obtain from the forebrains; from tissue; host or cells: mouse forebrain, crude mitochondrial fraction (P2 pellet on a discontinuous Ficoll gradient)
T1 sequence (Q8BW75 1-520): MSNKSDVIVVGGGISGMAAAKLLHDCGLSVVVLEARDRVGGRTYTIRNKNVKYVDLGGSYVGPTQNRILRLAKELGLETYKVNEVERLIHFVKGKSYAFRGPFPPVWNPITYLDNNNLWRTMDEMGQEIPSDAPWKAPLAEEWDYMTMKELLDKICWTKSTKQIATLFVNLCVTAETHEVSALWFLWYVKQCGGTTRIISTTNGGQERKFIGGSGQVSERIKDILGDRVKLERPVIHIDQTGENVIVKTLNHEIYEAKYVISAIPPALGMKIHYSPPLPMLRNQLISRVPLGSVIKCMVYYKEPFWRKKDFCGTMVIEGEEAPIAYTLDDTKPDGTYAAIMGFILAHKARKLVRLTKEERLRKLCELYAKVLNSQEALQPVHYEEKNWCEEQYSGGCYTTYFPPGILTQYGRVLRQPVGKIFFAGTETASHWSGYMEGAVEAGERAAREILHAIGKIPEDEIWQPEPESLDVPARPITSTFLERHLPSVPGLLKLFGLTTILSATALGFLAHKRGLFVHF

In the case of O=[N+]([O-])c1cccc2cn[nH]c12 [7-NI, 7-nitroindazole], the “3-NP-induced increase of 2,3 and 2,5 DHBA” value (Male Sprague Dawley rats) was “significantly attenuated”, the “3-NP-induced increase of 3-nitrotyrosine in striatum” value (Male Sprague Dawley rats) was “significantly attenuated” and the “MAO-B activity in forebrain mitochondrial fraction after in vivo treatment” value (MAO-B) was 5.69±0.40 nmol/min/mg of protein.
